Data on 2 compounds can be found in US9642839B2, “Substance having tyrosine kinase inhibitory activity and preparation method and use thereof” (Institute of Radiation Medicine, China Academy of Military …, priority 2013, dated 2017).

pIC50: −log10 of the molar value.

Test [1] deals with non-small cell lung cancer (NSCLC). The settings on record: 250 mg/day tablet, NSCLC patients with previous chemotherapy, 159 subjects; cited from earlier work.
In a further test the test system is MKN-45 cells. The test is described as follows: In vitro antitumor activity, MTS cell proliferation. The format is cell-based. The settings on record: MKN-45, gastric cancer, 72 hours. On the procedure: (§1) Method: 14 cell lines (MKN-45 cells, MHCC97-L cells, MHCC97-H cells, HLE cells, HepG2 cells, 7721 cells, L02 cells, A375 cells, H460 cells, A549 cells, SK-N-SH cells, MCF-7 cells, K562 cells, and Ba/F3-Tpr-Met cells (pre-B cells which are malignantly transformed by the c-Met constitutive active mutant Tpr-Met) were seeded into 96-well plate at 1×10^4 cells/well, and each well was added with 150 μl DMEM medium (purchased from Invitrogen) containing 10% fetal bovine serum (purchased from Hyclone). When cell adherent was observed, different concentrations of 2-indolone derivatives (concentrations at 0.1-10 μM) were added, in addition to the negative control (vehicle control group) and blank control (medium group). After culture at 37° C., 5% CO2 for 72 hours, MTS reagent (Promega Corporation) were added for further culture for 2-4 h.

For a further test, the system named is K562 cells. The description is as above. The format is cell-based. The settings on record: K562, leukemia, 72 hours. On the procedure:
as §1

A further test relates to Ba/F3-Tpr-Met cells. The description is as above. The test is classed as cell-based. The settings on record: pre-B cell, 72 hours. On the procedure: as §1
The next test has as its system MCF-7 cells. The test is described as above. The test is classed as cell-based. The settings on record: MCF-7, breast cancer, 72 hours. On the procedure: as §1
A further test relates to A375 cells. The test is described as above. The test is classed as cell-based. The settings on record: A375, skin cancer, 72 hours. On the procedure: as §1
The subject of the next test is H460 cells. Described as above. The format is cell-based. The note with it: H460, lung cancer, 72 hours. As for the experimental part:
as §1

The subject of a further test is HLE cells. The description is as above. The test is classed as cell-based. The note with it: hepatocellular cancer, 72 hours. As for the experimental part: as §1
A further test deals with HepG2 cells. The test is described as above. The note with it: HepG2, hepatocellular cancer, 72 hours. The test is classed as cell-based. On the procedure: as §1
A further test concerns SK-N-SH cells. The description is as above. The format is cell-based. The note with it: neuroblastoma, 72 hours. On the procedure: as §1
Another test relates to MHCC97-L cells. The description is as above. The test is classed as cell-based. The note with it: hepatocellular cancer, 72 hours. On the procedure: as §1
For a further test, the system named is L02 cells. The test is described as follows: MTS cell proliferation, normal liver cells. The format is cell-based. The note with it: L02, normal hepatic cells, 72 hours. On the procedure:
[…] After culture at 37° C., 5% CO2 for 72 hours, MTS reagent (Promega Corporation) were added for further culture for 2-4 h.

The subject of test [2] is protein tyrosine kinase (PTK). The test is described as follows: PTK activity assay with mouse brain tissue extract (ELISA, OD 492 nm). The format is biochemical. The note with it: at 400 μM. On the procedure: Tyrosine kinase buffer: 10 mL 1M HEPES (pH 7.5), 0.4 mL 5% BSA/PBS, 0.2 mL 0.1M Na3VO4, and 1 mL 5M NaCl were added to 88.4 mL double distilled water (DDW) (HEPES: Amresco; Na3VO4: Sigma).
Extraction of tissue extract PTK: mouse brain tissue was quickly removed and weighed, followed by addition of five-fold volumes of pre-cooled homogenization buffer for homogenization. After centrifugation at 4° C., 1,000 g for 10 min, nuclei and cell debris were removed. The supernatant S1 was collected and centrifuged at 4° C., 10,000 g for 20 min, and then the supernatant S2 was collected. The precipitate P2, which represents the crude membrane protein fraction, was retained. S2 included cytoplasmic protein, and was used for testing protein tyrosine kinase (PTK) activity. In the detection of the membrane protein fraction, two-fold volumes of lysis buffer was added to P2, and the resultant was placed on ice for 10 min and centrifuged at 4° C., 10,000 g for 10 min. The supernatant S3, which represents the crude membrane protein including soluble membrane protein, was collected for testing PTK activity. Protein content in cytoplasm or membrane protein was detected by using BCA protein concentration kit (purchased from Beyotime Institute of Biotechnology). The tissue extract was stored at −70° C.
Coating of 96-well plate: PTK substrate was dissolved and added in an amount of 100 μl to each well. The plate was covered with its lid, and incubated at 4° C. overnight (10-12 hours). Then it was washed with 200 μl elution buffer once, and dried at 37° C. for 2 h. After that, it was washed with 10 mM PBS once, dried at room temperature, and then stored at 4° C. for further use.
Groups: blank control: 80 μl 1× tyrosine kinase buffer containing ATP+20 μl 1× tyrosine kinase buffer; negative control: 80 μl 1× tyrosine kinase buffer containing ATP+10 μl 1× tyrosine kinase buffer+7 μl tissue extract+3 μl 1× tyrosine kinase buffer; positive control: 80 μl 1× tyrosine kinase buffer containing ATP+10 μl Gefitinib+7 μl tissue extract+3 μl 1× tyrosine kinase buffer (first, the positive drug was allowed to interact with the tyrosine kinase tissue extract at room temperature for 10 min, and meanwhile the tissue extract for the negative control group was also placed at room temperature for 10 min, and then 80 μl 1× tyrosine kinase buffer containing ATP was added to respective groups); vehicle control: 80 μl 1× tyrosine kinase buffer containing ATP+10 μl DMSO+7 μl tissue extract+3 μl 1× tyrosine kinase buffer; drugs to be screened: 80 μl 1× tyrosine kinase buffer containing ATP+10 μl drug to be tested +7 μl tissue extract+3 μl 1× tyrosine kinase buffer.
PTK activity assay: 1× tyrosine kinase buffer was prepared by evenly mixing 1 mL (10×) tyrosine kinase buffer with 9 mL DDW. The tissue extract was diluted with 1× tyrosine kinase buffer appropriately, mixed with it gently and evenly, and placed on ice. ATP stock solution was dissolved by evenly mixing 48 μl ATP stock solution with 1 mL 1× tyrosine kinase buffer, and placed on ice. The microplate reader was added in respective wells with the groups formulated as above, covered with the lid, and incubated at room temperature for 30 min. The microplate reader was washed with 200 μl elution buffer and tapped until the residual buffer was removed, and this procedure was repeated for five times. To each well, 100 μl antibody diluent (antibody elution buffer diluted at a ratio of 1:2000) was added. The reader was covered with the lid, and incubated at room temperature for 30 min. OPD solution was prepared by addition of 4 mg OPD into a mixture of 4.86 mL 0.1 mol/L citric acid solution and 5.14 mL 0.2 mol/L Na2HPO4 solution, followed by addition of 50 μl 30% H2O2 to allow for complete dissolution, and then was protected from light. The antibody solution was removed. The reader was washed with 200 μl elution buffer and tapped until the residual buffer was removed, and this procedure was repeated for five times.

The next test has as its system MHCC97-H cells. Put plainly: In vitro antitumor activity, MTS cell proliferation. The format is cell-based, human. The settings on record: hepatocellular cancer, 72 hours. As for the experimental part:
as §1

The next test relates to A549 cells. The test is described as above. The format is cell-based, human. The note with it: A549, lung cancer, 72 hours. As for the experimental part:
as §1

For `COc1cc2ncnc(Nc3ccc(F)c(Cl)c3)c2cc1OCCCN1CCOCC1` [Gefitinib], the Objective response rate in [1] is 27.0%.
Consider `CCOc1ccc(NS(=O)(=O)c2ccc3c(c2)C(=Cc2nc4ccccc4[nH]2)C(=O)N3)cc1` [Indo 9, 3-(1H-benzimidazol-2-methylene)-5-(4-ethoxyphenylaminosulfo)-2-indolone], for which the pIC50 in the test on MKN-45 cells was 5.76; with K562 cells, 5.58; with Ba/F3-Tpr-Met cells it was 5.31; in the test with MCF-7 cells, 5.87; with A375 cells it was 5.67; with H460 cells it was 5.90. Besides, the pIC50 is 5.23 in the test with HLE cells; 5.22 with HepG2 cells; 5.91 in the test with SK-N-SH cells; 5.88 in the test with MHCC97-L cells; 4.63 in the test with L02 cells; 5.93 in the test with MHCC97-H cells. For the same compound, the pIC50 in the test on A549 cells was 5.60. For the same compound, the “Inhibition rate on tyrosine kinase” value in test [2] amounted to 51.3%.
